Measured values: PMC7802074, “Azanitrile Inhibitors of the SmCB1 Protease Target Are Lethal to Schistosoma mansoni: Structural and Mechanistic Insights into Chemotype Reactivity” (ACS Infectious Diseases, 2020)

Molecular target: recombinant SmCB1 (Schistosoma mansoni, UniProt Q8MNY2, T185A/T300A)
Assay: SmCB1 kinetic inhibition assay with fluorogenic substrate Cbz-Phe-Arg-AMC
Format: biochemical
Settings: Table S2, carbadipeptide nitriles; substrate Cbz-Phe-Arg-AMC; read-out: SmCB1 inhibition Ki
Description: Inhibition measurements were performed in triplicates in 96-well microplates (100 μL assay volume) at 37 °C. SmCB1 (20–40 pM) was added to a mixture of the fluorogenic substrate Cbz-Phe-Arg-AMC (20 μM) and an inhibitor (0–100 μM) in 0.1 M sodium acetate, pH 5.5, containing 2.5 mM dithiothreitol and 0.1% PEG 6000. The substrate hydrolysis was monitored in an Infinite M1000 microplate reader (Tecan, Männedorf, Switzerland) at excitation and emission wavelengths of 360 and 465 nm, respectively, for up to 15 and 60 min for fast- and slow-binding inhibitors, respectively. […] For slow-binding inhibitors, an observed first-order rate constant kobs was calculated at each inhibitor concentration by fitting the progress curve to the equation P = vst + (vi – vs)(1 – […])/kobs + d, where P is the product formation, vs is the steady-state velocity, t is the reaction time, vi is the initial velocity, and d is the offset. The inhibition constant Ki′ was determined by nonlinear regression using the equation vs/v0 = 1/(1 + [I]/Ki′). The true inhibition constants Ki were then calculated using the equation Ki = Ki′/(1 + [S]/Km), where [S] is the substrate concentration and Km is the Michaelis constant. The apparent second-order rate constant k2nd′ was determined by fitting to the linear equation kobs = k2nd′[I] + koff, where koff is the first-order rate constants for the dissociation of the enzyme–inhibitor complex and the true constant k2nd was calculated by the correction k2nd = k2nd′(1 + [S]/Km). […] In none of the assay systems did the final concentration of DMSO exceed 1.5%.

recombinant SmCB1, sequence (Q8MNY2 87-340 T185A/T300A): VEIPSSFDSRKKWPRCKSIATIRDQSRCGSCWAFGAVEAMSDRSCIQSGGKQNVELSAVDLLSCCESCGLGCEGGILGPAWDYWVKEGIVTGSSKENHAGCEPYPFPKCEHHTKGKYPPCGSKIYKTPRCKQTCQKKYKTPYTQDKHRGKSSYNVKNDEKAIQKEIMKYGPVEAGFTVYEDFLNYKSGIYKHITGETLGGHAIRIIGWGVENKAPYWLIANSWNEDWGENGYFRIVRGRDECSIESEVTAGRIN

Structure (SMILES) | Ki
CCC(C)C(NC(=O)OC(C)(C)C)C(=O)NCC#N (centres unmarked) [Gü932] | > 10 µM
C[C@H](NC(=O)OC(C)(C)C)C(=O)NCC#N [Gü933] | > 10 µM
CSCC[C@H](NC(=O)OC(C)(C)C)C(=O)NCC#N [Gü935] | > 10 µM
CC(C)(C)OC(=O)N1CCC[C@H]1C(=O)NCC#N [Gü936] | > 10 µM
CSCC[C@@H](C#N)NC(=O)[C@H](Cc1ccccc1)NC(=O)OC(C)(C)C [Gü968] | > 10 µM
CC(C)(C)OC(=O)N[C@@H](Cc1ccccc1)C(=O)N[C@H](C#N)CC#N [Gü970] | > 10 µM
CC(C)(C)OC(=O)N[C@@H](Cc1ccc(Br)cc1)C(=O)NCC#N [Gü1121] | > 10 µM
CC(C)(C)OC(=O)N[C@@H](Cc1cccc(Br)c1)C(=O)NCC#N [Gü1122] | > 10 µM
CC(C)(C)OC(=O)N[C@@H](Cc1cccc2ccccc12)C(=O)NCC#N [Gü1127] | > 10 µM
CC(C)(C)OC(=O)N[C@@H](CCc1ccccc1)C(=O)NCC#N [Gü1129] | > 10 µM
CC(C)(C)OC(=O)N[C@H](C(=O)NCC#N)c1ccccc1 [Gü1130] | > 10 µM
CCC[C@H](NC(=O)OC(C)(C)C)C(=O)NCC#N [Gü1131] | > 10 µM
CC[C@H](NC(=O)OC(C)(C)C)C(=O)NCC#N [Gü1132] | > 10 µM
CC(C)(C)OC(=O)N[C@H](Cc1ccccc1)C(=O)NCC#N [Gü1133] | > 10 µM
CC(=O)N[C@@H](Cc1ccccc1)C(=O)NCC#N [Gü1134] | > 10 µM
N#CCNC(=O)[C@H](Cc1ccccc1)NC(=O)c1ccccc1 [Gü1135] | > 10 µM
CC(C)(C)OC(=O)N[C@@H](CC1CC1)C(=O)NCC#N [Gü1228] | > 10 µM
CC(C)(C)OC(=O)N[C@@H](Cc1ccsc1)C(=O)NCC#N [Gü1232] | > 10 µM
CC(C)(C)OC(=O)N[C@@H](Cc1ccc(F)cc1)C(=O)NCC#N [Gü1237] | > 10 µM
CC(C)(C)OC(=O)N[C@@H](Cc1cccc(F)c1)C(=O)NCC#N [Gü1239] | > 10 µM
CC(C)(C)OC(=O)N[C@@H](Cc1ccccc1F)C(=O)NCC#N [Gü1242] | > 10 µM
CC(C)(C)OC(=O)N[C@@H](Cc1csc2ccccc12)C(=O)NCC#N [Gü1246] | > 10 µM
N#CCNC(=O)C1(NC(=O)OCc2ccccc2)CCCCC1 [Gü2195] | > 10 µM
